Laboratory results as given in the supplement of paper PMC7840683.

Tested on: HepaRG
Experiment: LDH release cytotoxicity, % of total lysis control; higher = more cytotoxic
Settings: 48 h
Method in brief: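 Eight-point half-log series of test chemicals, the highest at 100 µM, were given in duplicate for 48 h to single-lot HepaRG cells on collagen I-coated 96-well plates in serum-free induction medium with 0.5% DMSO. A Tecan Safire read resorufin fluorescence from CytoTox-ONE as a measure of LDH in 50 µL spent medium, with 0.1% Triton X in total lysis wells. Percent cytotoxicity was normalized to on-plate vehicle and total lysis controls and averaged over the duplicates.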

CC(C)c1cccc(C(C)C)c1N1C(=O)c2ccc(O)cc2C1=O [2-(2,6-Diisopropylphenyl)-5-hydroxy-1H-isoindole-1,3-dione]
Settings	LDH release cytotoxicity [%]
0.03162 µM	0.356
0.1 µM	0.0666
0.3162278 µM	-0.376
1 µM	-0.99
3.16228 µM	-0.278
10 µM	-0.287
31.6228 µM	-0.0632
100 µM	0.492

CCCCOCCOCCO [2-(2-Butoxyethoxy)ethanol]
Settings	LDH release cytotoxicity [%]
0.03162 µM	-0.987
0.1 µM	-1.94
0.3162278 µM	-1.79
1 µM	-2.09
3.16228 µM	-2.29
10 µM	-1.67
31.6228 µM	-1.25
100 µM	-0.813

CCOCCOCCO [2-(2-Ethoxyethoxy)ethanol]
Settings	LDH release cytotoxicity [%]
0.03162 µM	0.116
0.1 µM	-1.88
0.3162278 µM	-1.03
1 µM	-1.82
3.16228 µM	-1.06
10 µM	-0.761
31.6228 µM	-0.843
100 µM	-0.504

CCC(C)c1ccccc1O (configuration not stated) [2-(Butan-2-yl)phenol]
Settings	LDH release cytotoxicity [%]
0.031623 µM	-0.239
0.1 µM	-1.12
0.316228 µM	-2.25
1 µM	-2.96
3.16228 µM	-3.27
10 µM	-1.71
31.6228 µM	-1.22
100 µM	0.802

O=[N+]([O-])C(CO)(CO)CO [2-(Hydroxymethyl)-2-nitro-1,3-propanediol]
Settings	LDH release cytotoxicity [%]
0.03162 µM	0.0153
0.1 µM	-1.5
0.3162278 µM	-1.73
1 µM	-0.843
3.16228 µM	-0.932
10 µM	-1.24
31.6228 µM	-0.797
100 µM	0.918

CCCCCCC(C=O)=Cc1ccccc1 [2-(Phenylmethylene)octanal]
Settings	LDH release cytotoxicity [%]
0.03162 µM	-1.15
0.1 µM	-2.83
0.3162278 µM	-1.02
1 µM	-1.91
3.16228 µM	-1.53
10 µM	-0.899
31.6228 µM	-0.688
100 µM	-0.668

N#CSCSc1nc2ccccc2s1 [2-(Thiocyanomethylthio)benzothiazole]
Settings	LDH release cytotoxicity [%]
0.03162 µM	-0.587
0.1 µM	-0.847
0.3162278 µM	-0.155
1 µM	-0.646
3.16228 µM	0.021
10 µM	-0.312
31.6228 µM	-0.754
100 µM	1.03

Nc1ccc2c(c1)C(=O)c1ccccc1C2=O [2-Aminoanthraquinone]
Settings	LDH release cytotoxicity [%]
0.03162 µM	-1.78
0.1 µM	-1.65
0.3162278 µM	-1.65
1 µM	-1.44
3.16228 µM	-1.62
10 µM	-1.05
31.6228 µM	-1.21
100 µM	-0.125

COc1ccccc1N [2-Anisidine]
Settings	LDH release cytotoxicity [%]
0.03162 µM	-1.27
0.1 µM	-0.978
0.3162278 µM	-0.111
1 µM	-0.865
3.16228 µM	-1.04
10 µM	0.222
31.6228 µM	0.835
100 µM	4.39

CCC(C)N=O (configuration not stated) [2-Butanone oxime]
Settings	LDH release cytotoxicity [%]
0.02261 µM	0.0542
0.0715 µM	-0.457
0.2261029 µM	-1.06
0.715 µM	-1.57
2.26103 µM	-1.04
7.15 µM	-1.22
22.6103 µM	-1.08
71.5 µM	0.052

CCCCOCCO [2-Butoxyethanol]
Settings	LDH release cytotoxicity [%]
0.03162 µM	-2.12
0.1 µM	-0.886
0.3162278 µM	-1.1
1 µM	-2.21
3.16228 µM	-1.06
10 µM	-0.332
31.6228 µM	-0.824
100 µM	1.02

O=C(CCl)c1ccccc1 [2-Chloroacetophenone]
Settings	LDH release cytotoxicity [%]
0.03162 µM	-1
0.1 µM	-0.706
0.3162278 µM	0.0478
1 µM	-0.336
3.16228 µM	-0.414
10 µM	0.0717
31.6228 µM	1.4
100 µM	17.7

OCCCl [2-Chloroethanol]
Settings	LDH release cytotoxicity [%]
0.03162 µM	-1.15
0.1 µM	-1.03
0.3162278 µM	-1.59
1 µM	-1.39
3.16228 µM	-1.15
10 µM	-0.492
31.6228 µM	-0.514
100 µM	4.05

Oc1ccccc1Cl [2-Chlorophenol]
Settings	LDH release cytotoxicity [%]
0.03162 µM	-2.95
0.1 µM	-4.22
0.3162278 µM	-4.63
1 µM	-4.14
3.16228 µM	-3.68
10 µM	-3.65
31.6228 µM	-2.05
100 µM	1.5

Cc1ccccc1Cl [2-Chlorotoluene]
Settings	LDH release cytotoxicity [%]
0.03162 µM	-1.99
0.1 µM	-1.94
0.3162278 µM	-2.27
1 µM	-1.84
3.16228 µM	-2.6
10 µM	-1.26
31.6228 µM	-0.387
100 µM	0.838

CCOCCO [2-Ethoxyethanol]
Settings	LDH release cytotoxicity [%]
0.03162 µM	-0.38
0.1 µM	0.655
0.3162278 µM	-0.174
1 µM	0.482
3.16228 µM	0.0895
10 µM	0.267
31.6228 µM	0.257
100 µM	1.46

CCCCC(CC)CO (configuration not stated) [2-Ethyl-1-hexanol]
Settings	LDH release cytotoxicity [%]
0.0320971 µM	-0.547
0.1015 µM	-0.771
0.320971 µM	-0.413
1.015 µM	-0.597
3.2097118 µM	0.185
10.15 µM	0.421
32.0971 µM	0.242
101.5 µM	0.842

CCCCC(CC)C(=O)O (configuration not stated) [2-Ethylhexanoic acid]
Settings	LDH release cytotoxicity [%]
0.0327296 µM	-0.279
0.1035 µM	-1.03
0.327296 µM	-1.23
1.035 µM	-1.42
3.27296 µM	-1.45
10.35 µM	-1.29
32.729574 µM	-1.58
103.5 µM	-0.99

CCCCCCOCCO [2-Hexyloxyethanol]
Settings	LDH release cytotoxicity [%]
0.03162 µM	-0.677
0.1 µM	-1.05
0.3162278 µM	-0.605
1 µM	-0.402
3.16228 µM	-1.19
10 µM	0.932
31.6228 µM	0.572
100 µM	47.6
